Tested on: PTEN-P2/GFP prostate cancer cells
Test: Effect of 1,4-naphthoquinone analogs on PTEN-P2/GFP cell proliferation (WST-1 cell viability, 24 h)
Assay type: cell-based
Settings: Mus musculus, WST-1, medium with 10% FBS and DHT, read-out: PTEN-P2/GFP cell proliferation, percent of control
Protocol: Cells are grown in phenol red-free DMEM medium containing 10% FBS, 2 mM L-glutamine, 100 U/ml penicillin/100 μg/ml streptomycin, insulin-selenium-transferrin (5 μg/ml insulin), and DHT 10^−8M final. Androgen withdrawal is achieved by not adding DHT to the medium. Cells are maintained in a humidified incubator at 37° C. and 5% CO2. G418 (100 μg/ml) is added to maintain stable expression of H2B-GFP.
100 microliters of PTEN-P2/GFP prostate cancer cells were plated at a density of 8000 cells/well in 96-well plates (triplicates) in growing medium containing 10% Fetal Bovine Serum and DHT. The next day, increasing concentrations of a 1,4-naphthoquinone analog (diluted from 10 mM DMSO stock solutions) were added. DMSO used as solvent for all analogs, was kept constant through the 96-well plates. The control consisted of DMSO alone. The cells were subsequently incubated for 24 hours at 37° C. and 5% CO2 in normal cell growth conditions. Cell viability was assessed by adding 9 μL/well of WST-1 reagent (Clontech), which measured mitochondrial activity of live cells. […] The incubation time was 3 hours at 37° C. Optical density of the cell samples was measured at 460 nm, by using plate reader Spectra Max 250 (Molecular Devices). The drug was determined to be cytotoxic when OD values show an inverse correlation with analog concentrations. The results are shown in TABLES 3.1-3.4, FIGS. 2A-2E, and FIGS. 3A-3D.

O=C1C(Br)=C(Oc2ccccc2)C(=O)c2ccccc21 [Analog F18, 2-bromo-3-phenoxy-1,4-naphthoquinone]
activity at 2 µM: 96.6%
activity at 3 µM: 92.5%
activity at 4 µM: 85.5%
activity at 5 µM: 69.8%
activity at 6 µM: 53.5%
activity at 7 µM: 45%
activity at 10 µM: 20.3%
activity at 15 µM: 11.1%
activity at 25 µM: 9.64%

COC(=O)c1ccccc1OC1=C(Br)C(=O)c2ccccc2C1=O [Analog F19, methyl 3-bromo-1,4-naphthoquinon-2-yl-salicylate]
activity at 2 µM: 99.5%
activity at 3 µM: 94.3%
activity at 4 µM: 85.2%
activity at 5 µM: 81%
activity at 6 µM: 68.2%
activity at 7 µM: 59.3%
activity at 10 µM: 32.3%
activity at 15 µM: 20.1%
activity at 25 µM: 12.1%

O=C1C(Oc2ccccc2)=C(Oc2ccccc2)C(=O)c2ccccc21 [Analog F21, 2,3-diphenoxy-1,4-naphthoquinone]
activity at 2 µM: 102%
activity at 3 µM: 92.9%
activity at 4 µM: 92.9%
activity at 5 µM: 92.9%
activity at 6 µM: 61.8%
activity at 7 µM: 54.4%
activity at 10 µM: 26.1%
activity at 15 µM: 16.2%
activity at 25 µM: 16.3%

O=C1C(Oc2c(F)cc(F)cc2F)=C(Oc2c(F)cc(F)cc2F)C(=O)c2ccccc21 [Analog F22, 2,3-bis(2,4,6-trifluorophenoxy)naphthalene-1,4-dione]
activity at 1.2 µM: 91.2%
activity at 2.5 µM: 103%
activity at 5 µM: 105%
activity at 7.5 µM: 107%
activity at 10 µM: 104%
activity at 15 µM: 105%
activity at 20 µM: 101%

O=C1C(Oc2ccc(O)cc2)=C(Oc2ccc(O)cc2)C(=O)c2ccccc21 [Analog F24, 2,3-bis(4-hydroxyphenoxy)-1,4-naphthoquinone]
activity at 1.2 µM: 111%
activity at 2.5 µM: 87.1%
activity at 5 µM: 57.6%
activity at 7.5 µM: 30.9%
activity at 10 µM: 8.07%
activity at 15 µM: 6.73%
activity at 20 µM: 3.73%

O=C(NCCCl)Oc1ccc(OC2=C(Oc3ccc(OC(=O)NCCCl)cc3)C(=O)c3ccccc3C2=O)cc1 [Analog F34, 2,3-bis(4-((2-chloroethyl)carbamoyloxy)phenoxy)-1,4-naphthoquinone]
activity at 2 µM: 74.5%
activity at 3 µM: 49.6%
activity at 4 µM: 35.8%
activity at 5 µM: 26%
activity at 6 µM: 19.3%
activity at 7 µM: 17.2%
activity at 10 µM: 14.2%
activity at 15 µM: 14.2%
activity at 25 µM: 14.5%

CC(=O)NC1=C(Cl)C(=O)c2ccccc2C1=O [Analog F37, 2-N-acetylamino-3-chloro-1,4-naphthoquinone]
activity at 2 µM: 101%
activity at 3 µM: 94.4%
activity at 4 µM: 86.6%
activity at 5 µM: 71.4%
activity at 6 µM: 55.7%
activity at 7 µM: 36.7%
activity at 10 µM: 17.6%
activity at 15 µM: 13.9%
activity at 25 µM: 13.6%

CC(=O)NC1=C(Oc2ccccc2)C(=O)c2ccccc2C1=O [Analog F38, N-(1,4-dioxo-3-phenoxy-1,4-dihydronaphthalen-2-yl)acetamide]
activity at 2 µM: 95.8%
activity at 3 µM: 87%
activity at 4 µM: 71.7%
activity at 5 µM: 54%
activity at 6 µM: 41%
activity at 7 µM: 30.7%
activity at 10 µM: 16.6%
activity at 15 µM: 14.7%
activity at 25 µM: 14.3%

CC(=O)NC1=C(Oc2ccc(Cl)cc2)C(=O)c2ccccc2C1=O [Analog F39, N-(3-(4-chlorophenoxy)-1,4-dioxo-1,4-dihydronaphthalen-2-yl)acetamide]
activity at 2 µM: 102%
activity at 3 µM: 82.2%
activity at 4 µM: 70.6%
activity at 5 µM: 57.5%
activity at 6 µM: 41.5%
activity at 7 µM: 29.4%
activity at 10 µM: 14.3%
activity at 15 µM: 12%
activity at 25 µM: 12.7%

CC(=O)NC1=C(Oc2ccc(NC(C)=O)cc2)C(=O)c2ccccc2C1=O [Analog F40, N-(4-((3-acetamido-1,4-dioxo-1,4-dihydronaphthalen-2-yl)oxy)phenyl)acetamide]
activity at 2 µM: 97%
activity at 3 µM: 98.8%
activity at 4 µM: 89.2%
activity at 5 µM: 85.2%
activity at 6 µM: 73.2%
activity at 7 µM: 67.3%
activity at 10 µM: 56.2%
activity at 15 µM: 46.1%
activity at 25 µM: 44.6%

COc1ccc(OC2=C(NC(C)=O)C(=O)c3ccccc3C2=O)cc1 [Analog F41, N-(3-(4-methoxyphenoxy)-1,4-dioxo-1,4-dihydronaphthalen-2-yl)acetamide]
activity at 2 µM: 95.1%
activity at 3 µM: 89.8%
activity at 4 µM: 84.5%
activity at 5 µM: 75%
activity at 6 µM: 69.6%
activity at 7 µM: 63.9%
activity at 10 µM: 36.9%
activity at 15 µM: 13.5%
activity at 25 µM: 12.6%

CC(=O)NC1=C(Oc2ccc(OCc3ccccc3)cc2)C(=O)c2ccccc2C1=O [Analog F42, N-(3-(4-(benzyloxy)phenoxy)-1,4-dioxo-1,4-dihydronaphthalen-2-yl)acetamide]
activity at 2 µM: 101%
activity at 3 µM: 101%
activity at 4 µM: 97.6%
activity at 5 µM: 89.1%
activity at 6 µM: 83.8%
activity at 7 µM: 75.3%
activity at 10 µM: 37.5%
activity at 15 µM: 20.2%
activity at 25 µM: 16.6%

CC(=O)NC1=C(Oc2cc(F)cc(F)c2)C(=O)c2ccccc2C1=O [Analog F43, N-(3-(3,5-difluorophenoxy)-1,4-dioxo-1,4-dihydronaphthalen-2-yl)acetamide]
activity at 2 µM: 94.6%
activity at 3 µM: 88.7%
activity at 4 µM: 78.3%
activity at 5 µM: 68.4%
activity at 6 µM: 55.3%
activity at 7 µM: 45.2%
activity at 10 µM: 32.9%
activity at 15 µM: 24.7%
activity at 25 µM: 24.1%

CC(=O)NC1=C(Oc2ccc(OC3=C(NC(C)=O)C(=O)c4ccccc4C3=O)cc2)C(=O)c2ccccc2C1=O [Analog F44, N,N′-((1,4-phenylenebis(oxy))bis(1,4-dioxo-1,4-dihydronaphthalene-3,2-diyl))diacetamide]
activity at 2 µM: 106%
activity at 3 µM: 102%
activity at 4 µM: 69%
activity at 5 µM: 58.6%
activity at 6 µM: 50.5%
activity at 7 µM: 45.4%
activity at 10 µM: 38.7%
activity at 15 µM: 20.9%
activity at 25 µM: 17.1%

COC(=O)CSC1=C(C)C(=O)c2cccc(O)c2C1=O [Analog F46, Methyl 2-((8-hydroxy-3-methyl-1,4-dioxo-1,4-dihydronaphthalen-2-yl)thio)acetate]
activity at 1 µM: 95.4%
activity at 2 µM: 90.6%
activity at 3 µM: 84.9%
activity at 4 µM: 75%
activity at 5 µM: 66.1%
activity at 6 µM: 60.6%
activity at 7 µM: 54.7%
activity at 10 µM: 33%
activity at 25 µM: 13%
activity at 50 µM: 13.6%

COc1cccc2c1C(=O)C=C(C)C2=O [Analog F47, 5-methoxy-2-methyl-1,4-naphthoquinone]
activity at 1 µM: 105%
activity at 2 µM: 104%
activity at 3 µM: 104%
activity at 4 µM: 107%
activity at 5 µM: 105%
activity at 6 µM: 105%
activity at 7 µM: 106%
activity at 10 µM: 109%
activity at 25 µM: 78.8%
activity at 50 µM: 11.1%

— patent publication US10577315B2, “Compositions and methods for treatment of prostate carcinoma” (Pellficure Pharmaceuticals, Inc., priority 2014, dated 2020)
